US8486693B2, “Modified dendritic cells having enhanced survival and immunogenicity and related compositions and methods” (Bellicum Pharmaceuticals, Inc., priority 2006, dated 2013)

System: NF-.kappa.B
Assay: NF-.kappa.B/SEAP reporter assay in Jurkat-TAg cells (Example 10, iAkt)
Assay type: cell-based, human
Method: Jurkat-TAg cells in logarithmic-phase growth were electroporated ([…], 250 V; Gene Pulser II (BIO-RAD)) with expression plasmids and the NF-.kappa.B-SEAP reporter plasmid. After 24 hours, transfected cells were stimulated with sub-optimal levels of the phorbol ester PMA (5 ng/ml) along with log dilutions of the heterodimerizing CID, AP22783, and additional treatments. After an additional 24 hours, supernatants were assayed for SEAP activity.
Two key requirements for efficient synthetic regulation of a biological event are highly specific conditional dependency and low background. […] Therefore, in order to optimize iAkt, an NF-.kappa.B-responsive secreted alkaline phosphatase (SEAP) reporter plasmid was used as an assay for Akt activation.
Briefly, the human T cell line, Jurkat-TAg, was cotransfected with reporter plasmid, NF-.kappa.B/SEAP, along with constitutively active M-Akt expression vector or empty control vector. Twenty-four hours after transfection, cells were divided into aliquots that were stimulated with sub-optimal levels (5 ng/ml) of the phorbol ester, PMA, or were untreated. After an additional 24 hours, SEAP activity was measured. Although Akt activity alone was insufficient to induce measurable NF-.kappa.B activity, M-Akt expression potentiated (by 3-4 fold) PKC-induced NF-.kappa.B activity, consistent with multiple reports. […]

Row | Molecule | NF-.kappa.B activation by M-Akt plus PKC in presence of inhibitor (LY294002 5 μM, wortmannin 1 μM, R0318220 1 μM) | NF-.kappa.B induction on CID (AP22783)-mediated membrane recruitment via M-FRB12 (5 ng/ml PMA, log dilutions of AP22783)
1 | Cn1cc(C2=C(c3cn(CCCSC(=N)N)c4ccccc34)C(=O)NC2=O)c2ccccc21 [R0318220] | complete inhibition of NF-.kappa.B | –
2 | Akt.KM: kinase-dead mutant (K179M) chimeric Akt (protein, UniProt P31750 1-480, looked up, variant K179M, chimeric) RAC-alpha …: MNDVAIVKEGWLHKRGEYIKTWRPRYFLLKNDGTFIGYKERPQDVDQRESPLNNFSVAQCQLMKTERPRPNTFIIRCLQWTTVIERTFHVETPEEREEWATAIQTVADGLKRQEEETMDFRSGSPSDNSGAEEMEVSLAKPKHRVTMNEFEYLKLLGKGTFGKVILVKEKATGRYYAMMILKKEVIVAKDEVAHTLTENRVLQNSRHPFLTALKYSFQTHDRLCFVMEYANGGELFFHLSRERVFSEDRARFYGAEIVSALDYLHSEKNVVYRDLKLENLMLDKDGHIKITDFGLCKEGIKDGATMKTFCGTPEYLAPEVLEDNDYGRAVDWWGLGVVMYEMMCGRLPFYNQDHEKLFELILMEEIRFPRTLGPEAKSLLSGLLKKDPTQRLGGGSEDAKEIMQHRFFANIVWQDVYEKKLSPPFKPQVTSETDTRYFDEEFTAQMITITPPDQDDSMECVDSERRPHFPQFSYSASGTA | – | no detectable effect on NF-.kappa.B induction over PMA alone
